{"source": "patent US12357680B2", "about": "“Inhibition of histone methyl transferases to treat cancer” (Albert-Ludwigs-Universitat Freiburg, priority 2018, dated 2025)", "key": {"[1]": {"test": "Methyltransferase panel, 10-dose IC50 mode", "format": "biochemical", "settings": "Substrate: Core Histone; 1 μM SAM; read-out: Control IC50*", "protocol": "(§1) Compound 72b was further tested against a plurality of methyltransferases as described in the following. […] Reactions were carried out at 1 μM SAM. Curve fits were performed where the enzyme activities at the highest concentration of compounds were less than 65%. […] Compound 72b is referred to as KMI9542321 in the table below."}, "[2]": {"target": "DNMT3a (Homo sapiens (Human), UniProt Q9Y6K1)", "test": "Methyltransferase panel, 10-dose IC50 mode", "format": "biochemical", "settings": "Substrate: Lambda DNA; 1 μM SAM; read-out: Control IC50*", "protocol": "as §1"}, "[3]": {"target": "DNMT3b (Homo sapiens (Human), UniProt Q9UBC3)", "test": "Methyltransferase panel, 10-dose IC50 mode", "format": "biochemical", "settings": "Substrate: Lambda DNA; 1 μM SAM; read-out: Control IC50*", "protocol": "as §1"}, "[4]": {"target": "DNMT3b/3L (Homo sapiens (Human), UniProt Q9UBC3)", "test": "Methyltransferase panel, 10-dose IC50 mode", "format": "biochemical", "settings": "Substrate: Lambda DNA; 1 μM SAM; read-out: Control IC50*", "protocol": "as §1"}, "[5]": {"target": "GLP (Homo sapiens (Human), UniProt Q9H9B1)", "test": "Methyltransferase panel, 10-dose IC50 mode", "format": "biochemical", "settings": "Substrate: Histone H3 (1-21); 1 μM SAM; read-out: Control IC50*", "protocol": "as §1"}, "[6]": {"target": "MLL1 Complex (Homo sapiens (Human), UniProt Q03164)", "test": "Methyltransferase panel, 10-dose IC50 mode", "format": "biochemical", "settings": "Substrate: Nucleosomes; 1 μM SAM; read-out: Control IC50*", "protocol": "as §1"}, "[7]": {"target": "MLL3 Complex (Homo sapiens (Human), UniProt Q8NEZ4)", "test": "Methyltransferase panel, 10-dose IC50 mode", "format": "biochemical", "settings": "Substrate: Core Histone; 1 μM SAM; read-out: Control IC50*", "protocol": "as §1"}, "[8]": {"target": "NRMT1 (Homo sapiens (Human), UniProt Q9BV86)", "sequence (Q9BV86 whole entry)": "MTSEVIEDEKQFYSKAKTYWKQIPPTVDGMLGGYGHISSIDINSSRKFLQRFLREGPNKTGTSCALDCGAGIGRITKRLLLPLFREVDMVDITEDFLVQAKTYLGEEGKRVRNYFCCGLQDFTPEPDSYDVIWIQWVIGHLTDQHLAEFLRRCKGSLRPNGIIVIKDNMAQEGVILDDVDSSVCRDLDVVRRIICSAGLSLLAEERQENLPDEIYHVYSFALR", "test": "Methyltransferase panel, 10-dose IC50 mode", "format": "biochemical", "settings": "Substrate: RCC1; 1 μM SAM; read-out: Control IC50*", "protocol": "as §1"}, "[9]": {"target": "NRMT2 (Homo sapiens (Human), UniProt Q5VVY1)", "test": "Methyltransferase panel, 10-dose IC50 mode", "format": "biochemical", "settings": "Substrate: RCC1; 1 μM SAM; read-out: Control IC50*", "protocol": "as §1"}, "[10]": {"target": "NSD1 (Homo sapiens (Human), UniProt Q96L73)", "test": "Methyltransferase panel, 10-dose IC50 mode", "format": "biochemical", "settings": "Substrate: Nucleosomes; 1 μM SAM; read-out: Control IC50*", "protocol": "as §1"}, "[11]": {"target": "PRMT3 (Homo sapiens (Human), UniProt O60678)", "sequence (O60678 whole entry, species assumed)": "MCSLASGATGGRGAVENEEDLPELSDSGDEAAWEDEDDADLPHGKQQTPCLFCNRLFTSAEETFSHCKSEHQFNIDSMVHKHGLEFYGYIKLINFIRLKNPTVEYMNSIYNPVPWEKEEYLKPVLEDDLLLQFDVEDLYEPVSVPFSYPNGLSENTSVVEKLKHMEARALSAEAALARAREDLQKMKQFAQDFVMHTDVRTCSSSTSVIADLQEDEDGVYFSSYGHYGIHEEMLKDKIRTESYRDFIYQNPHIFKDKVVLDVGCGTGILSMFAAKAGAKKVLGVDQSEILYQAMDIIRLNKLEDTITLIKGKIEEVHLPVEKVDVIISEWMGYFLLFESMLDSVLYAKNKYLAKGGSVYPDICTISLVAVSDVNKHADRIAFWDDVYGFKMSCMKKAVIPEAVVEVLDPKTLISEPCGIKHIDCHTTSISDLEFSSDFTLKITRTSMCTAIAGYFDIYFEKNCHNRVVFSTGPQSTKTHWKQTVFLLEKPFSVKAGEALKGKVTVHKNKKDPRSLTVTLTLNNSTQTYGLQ", "test": "Methyltransferase panel, 10-dose IC50 mode", "format": "biochemical", "settings": "Substrate: Histone H4; 1 μM SAM; read-out: Control IC50*", "protocol": "as §1"}, "[12]": {"target": "PRMT6 (Homo sapiens (Human), UniProt Q96LA8)", "sequence (Q96LA8 whole entry, species assumed)": "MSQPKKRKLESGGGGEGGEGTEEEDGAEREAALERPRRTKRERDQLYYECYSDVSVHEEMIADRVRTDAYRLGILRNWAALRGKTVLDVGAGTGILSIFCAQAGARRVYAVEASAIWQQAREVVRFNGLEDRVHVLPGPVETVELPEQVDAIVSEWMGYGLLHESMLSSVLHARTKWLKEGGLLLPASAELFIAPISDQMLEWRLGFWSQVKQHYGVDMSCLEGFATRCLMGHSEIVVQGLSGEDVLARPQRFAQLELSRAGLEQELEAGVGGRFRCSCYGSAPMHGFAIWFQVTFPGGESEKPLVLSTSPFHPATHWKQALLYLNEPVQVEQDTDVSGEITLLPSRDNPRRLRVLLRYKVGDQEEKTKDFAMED", "test": "Methyltransferase panel, 10-dose IC50 mode", "format": "biochemical", "protocol": "as §1"}, "[13]": {"target": "SET1b Complex (Homo sapiens (Human), UniProt Q9UPS6)", "test": "Methyltransferase panel, 10-dose IC50 mode", "format": "biochemical", "settings": "Substrate: Core Histone; 1 μM SAM; read-out: Control IC50*", "protocol": "as §1"}, "[14]": {"target": "SET7/9 (Homo sapiens (Human), UniProt Q8WTS6)", "sequence (Q8WTS6 whole entry)": "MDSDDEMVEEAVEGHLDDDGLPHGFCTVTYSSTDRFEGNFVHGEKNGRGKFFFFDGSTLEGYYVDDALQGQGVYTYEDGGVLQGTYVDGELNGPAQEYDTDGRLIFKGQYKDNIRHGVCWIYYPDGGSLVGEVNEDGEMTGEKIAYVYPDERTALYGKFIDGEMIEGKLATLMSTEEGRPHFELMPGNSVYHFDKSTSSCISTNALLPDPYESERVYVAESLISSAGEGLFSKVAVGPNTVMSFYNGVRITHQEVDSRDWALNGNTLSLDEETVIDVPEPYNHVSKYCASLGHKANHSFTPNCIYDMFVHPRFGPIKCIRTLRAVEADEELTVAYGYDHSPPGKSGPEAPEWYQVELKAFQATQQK", "test": "Methyltransferase panel, 10-dose IC50 mode", "format": "biochemical", "settings": "Substrate: Core Histone; 1 μM SAM; read-out: Control IC50*", "protocol": "as §1"}, "[15]": {"target": "SETD2 (Homo sapiens (Human), UniProt Q9BYW2)", "sequence (Q9BYW2 whole entry)": "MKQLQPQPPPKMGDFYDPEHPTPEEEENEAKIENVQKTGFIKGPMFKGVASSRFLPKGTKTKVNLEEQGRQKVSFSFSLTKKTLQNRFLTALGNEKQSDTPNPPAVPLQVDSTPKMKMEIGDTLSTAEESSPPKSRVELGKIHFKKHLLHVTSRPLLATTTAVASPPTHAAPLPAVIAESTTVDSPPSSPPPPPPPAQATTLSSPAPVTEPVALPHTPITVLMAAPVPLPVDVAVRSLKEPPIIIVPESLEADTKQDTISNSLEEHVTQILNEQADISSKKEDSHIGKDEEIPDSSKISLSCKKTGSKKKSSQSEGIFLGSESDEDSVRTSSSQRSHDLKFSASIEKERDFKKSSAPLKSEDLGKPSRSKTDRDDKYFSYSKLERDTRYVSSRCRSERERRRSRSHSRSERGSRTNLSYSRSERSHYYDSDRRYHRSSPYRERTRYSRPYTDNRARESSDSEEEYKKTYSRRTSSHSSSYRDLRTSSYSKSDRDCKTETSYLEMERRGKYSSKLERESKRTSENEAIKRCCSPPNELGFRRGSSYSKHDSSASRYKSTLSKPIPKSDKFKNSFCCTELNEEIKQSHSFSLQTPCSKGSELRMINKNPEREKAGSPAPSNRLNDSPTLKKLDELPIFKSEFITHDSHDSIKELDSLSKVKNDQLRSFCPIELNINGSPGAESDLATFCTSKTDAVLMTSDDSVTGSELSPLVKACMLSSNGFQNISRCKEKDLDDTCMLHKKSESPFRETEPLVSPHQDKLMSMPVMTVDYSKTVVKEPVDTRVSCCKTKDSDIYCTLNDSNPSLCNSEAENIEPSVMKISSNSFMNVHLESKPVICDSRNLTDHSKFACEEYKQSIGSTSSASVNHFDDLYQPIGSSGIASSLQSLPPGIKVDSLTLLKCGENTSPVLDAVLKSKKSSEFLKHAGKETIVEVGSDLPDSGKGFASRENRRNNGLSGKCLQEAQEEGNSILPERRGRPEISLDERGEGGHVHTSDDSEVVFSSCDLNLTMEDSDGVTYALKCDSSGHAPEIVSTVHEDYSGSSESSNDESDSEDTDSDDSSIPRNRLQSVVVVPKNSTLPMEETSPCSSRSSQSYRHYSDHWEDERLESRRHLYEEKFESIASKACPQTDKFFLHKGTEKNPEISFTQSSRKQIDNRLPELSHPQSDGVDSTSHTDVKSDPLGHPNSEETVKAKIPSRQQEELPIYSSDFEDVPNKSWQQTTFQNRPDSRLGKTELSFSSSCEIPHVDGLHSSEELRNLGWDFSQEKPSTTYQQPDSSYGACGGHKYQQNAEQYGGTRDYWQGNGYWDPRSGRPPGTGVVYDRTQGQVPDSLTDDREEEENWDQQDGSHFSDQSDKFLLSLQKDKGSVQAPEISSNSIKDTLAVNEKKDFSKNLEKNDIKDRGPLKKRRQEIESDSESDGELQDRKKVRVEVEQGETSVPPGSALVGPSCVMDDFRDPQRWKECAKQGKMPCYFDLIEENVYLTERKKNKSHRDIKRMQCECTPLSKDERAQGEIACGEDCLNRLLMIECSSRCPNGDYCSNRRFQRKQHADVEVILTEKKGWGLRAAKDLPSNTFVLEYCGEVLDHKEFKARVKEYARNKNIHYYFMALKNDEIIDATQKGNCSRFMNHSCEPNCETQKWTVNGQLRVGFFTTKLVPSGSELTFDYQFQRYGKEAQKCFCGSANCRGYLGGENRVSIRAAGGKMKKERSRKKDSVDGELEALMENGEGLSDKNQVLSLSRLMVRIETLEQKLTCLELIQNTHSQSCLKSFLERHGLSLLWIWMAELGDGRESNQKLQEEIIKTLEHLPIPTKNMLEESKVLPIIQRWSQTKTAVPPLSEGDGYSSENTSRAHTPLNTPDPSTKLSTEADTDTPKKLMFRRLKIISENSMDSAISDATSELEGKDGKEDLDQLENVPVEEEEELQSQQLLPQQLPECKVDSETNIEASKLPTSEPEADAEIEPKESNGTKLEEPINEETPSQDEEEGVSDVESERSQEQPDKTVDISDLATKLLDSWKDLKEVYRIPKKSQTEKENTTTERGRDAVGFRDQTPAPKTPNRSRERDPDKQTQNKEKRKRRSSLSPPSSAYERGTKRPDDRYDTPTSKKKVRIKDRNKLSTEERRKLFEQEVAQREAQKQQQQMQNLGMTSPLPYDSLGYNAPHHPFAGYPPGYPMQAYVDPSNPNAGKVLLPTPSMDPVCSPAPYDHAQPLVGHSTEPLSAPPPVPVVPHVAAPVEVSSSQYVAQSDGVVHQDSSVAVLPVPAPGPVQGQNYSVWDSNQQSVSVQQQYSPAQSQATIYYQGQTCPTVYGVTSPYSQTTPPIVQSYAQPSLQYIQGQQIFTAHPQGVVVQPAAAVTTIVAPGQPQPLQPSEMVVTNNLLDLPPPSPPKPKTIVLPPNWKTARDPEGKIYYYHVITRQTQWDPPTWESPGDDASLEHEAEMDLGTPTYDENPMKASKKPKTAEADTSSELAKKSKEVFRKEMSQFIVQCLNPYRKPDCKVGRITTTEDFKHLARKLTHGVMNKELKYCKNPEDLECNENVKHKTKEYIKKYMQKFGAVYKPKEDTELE", "test": "Methyltransferase panel, 10-dose IC50 mode", "format": "biochemical", "settings": "Substrate: Nucleosomes; 1 μM SAM; read-out: Control IC50*", "protocol": "as §1"}, "[16]": {"target": "SMYD3 (Homo sapiens (Human), UniProt Q9H7B4)", "sequence (Q9H7B4 whole entry)": "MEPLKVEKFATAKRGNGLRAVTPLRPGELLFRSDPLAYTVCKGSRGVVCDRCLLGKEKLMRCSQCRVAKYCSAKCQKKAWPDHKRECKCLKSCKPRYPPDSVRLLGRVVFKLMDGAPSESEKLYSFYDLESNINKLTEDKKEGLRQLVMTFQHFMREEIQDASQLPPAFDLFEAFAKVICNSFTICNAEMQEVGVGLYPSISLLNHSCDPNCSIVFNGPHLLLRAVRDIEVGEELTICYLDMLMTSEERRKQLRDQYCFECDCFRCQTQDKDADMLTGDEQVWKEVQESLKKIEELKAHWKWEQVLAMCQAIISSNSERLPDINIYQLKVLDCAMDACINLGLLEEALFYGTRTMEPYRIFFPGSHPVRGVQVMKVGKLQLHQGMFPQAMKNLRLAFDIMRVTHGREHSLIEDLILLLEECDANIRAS", "test": "Methyltransferase panel, 10-dose IC50 mode", "format": "biochemical", "settings": "Substrate: MEKK2; 1 μM SAM; read-out: Control IC50*", "protocol": "as §1"}, "[17]": {"target": "SUV39H2 (Homo sapiens (Human), UniProt Q9H5I1)", "test": "Methyltransferase panel, 10-dose IC50 mode", "format": "biochemical", "settings": "Substrate: Histone H3; 1 μM SAM; read-out: Control IC50*", "protocol": "as §1"}, "[18]": {"target": "SUV420H1TV2 (Homo sapiens (Human), UniProt Q4FZB7)", "test": "Methyltransferase panel, 10-dose IC50 mode", "format": "biochemical", "settings": "Substrate: Nucleosomes; 1 μM SAM; read-out: Control IC50*", "protocol": "as §1"}, "[19]": {"target": "T1, KMT9 (Homo sapiens (Human), UniProt Q9Y5N5)", "T1 sequence (Q9Y5N5 whole entry)": "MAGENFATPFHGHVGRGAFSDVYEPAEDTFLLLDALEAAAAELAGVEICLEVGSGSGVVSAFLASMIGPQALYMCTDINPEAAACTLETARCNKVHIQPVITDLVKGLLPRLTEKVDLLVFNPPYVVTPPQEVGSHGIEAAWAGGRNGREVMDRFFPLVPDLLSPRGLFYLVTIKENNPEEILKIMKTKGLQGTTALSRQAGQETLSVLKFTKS", "T1 sequence (Q9UI30 whole entry partner)": "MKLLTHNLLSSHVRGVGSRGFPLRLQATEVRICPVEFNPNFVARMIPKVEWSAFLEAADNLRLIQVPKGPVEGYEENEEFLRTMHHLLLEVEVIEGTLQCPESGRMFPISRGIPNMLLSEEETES", "test": "Methylation assay to test KMT9-inhibition ([3H]SAM, filter binding, scintillation)", "format": "biochemical", "settings": "ETF1 or histone H4 substrate", "protocol": "Methylation assays were performed to test inhibition of the KMT9 methyltransferase activity by compound 72b. To test the compound, 1 μL of the compound, dissolved in DMSO at different concentrations, was added to a 0.5 ml tube (Brand Gmbh&Co KG). Afterwards, 4 μL of assay buffer (50 mM BTP, 1 mM MgCl2, 1 mM DTT, 0.01% TX-100, pH 8.5) were added together with 10 μL of 2× solution of KMT9 diluted in assay buffer (final concentration 0.025-0.6 μM). The solutions were mixed and incubated for 20 min at room temperature, shaking at 300 rpm. Afterwards, 5 μL of 4× Protein-SAM mix was added (final concentrations: 5 μM ETF1 or histone H4, SAM: 1-2.5 μM (including 30% of radioactively labelled [3H]SAM)) to a final assay volume of 20 μL. The reaction mixtures were mixed and incubated in an Eppendorf thermomixer comfort for 2 h at 30° C., shaking at 300 rpm. The reaction was quenched using 5 μL of 50% trichloroacetic acid (TCA) in water, mixed and incubated for 5 min at room temperature without shaking. […] The scintillation signal was measured for 3×1 min using Tri-Carb 2910 TR (PerkinElmer) scintillation counter in [^3H] […]"}, "[20]": {"target": "T1, KMT9", "test": "Microscale thermophoresis (MST) KMT9-binding", "settings": "His-tag labelled KMT9 20 nM; read-out: Binding affinity in MST", "protocol": "To determine the binding affinity of the compound to KMT9, microscale thermophoresis (MST) analysis was performed with a NanoTemper Monolith NT.115 instrument (NanoTemper Technologies GmbH). KMT9 was labelled with a RED-Tris-NTA labelling kit (NanoTemper Technologies GmbH) based on the manufacturer's instructions. Buffer including 25 mM HEPES (pH 7.5), 100 mM NaCl, 1 mM DTT and 0.05% Tween was used for the reaction buffer. Varying concentrations of the compound were titrated against His-tag labelled KMT9 proteins (20 nM). Samples were loaded into standard Capillaries (NanoTemper Technologies GmbH) and MST measurements were performed using 40% MST power and 100% LED power. For each set of binding experiments, MST measurement was carried out with Binding Affinity module in MO. Control program under Nano-RED Excitation. Datasets were processed with the MO. Affinity Analysis software (NanoTemper Technologies GmbH)."}, "[21]": {"target": "T1, KMT9", "test": "Thermal shift assay of KMT9 upon inhibitor binding", "settings": "thermal shift at 500 μM", "protocol": "For inhibitor testing, 1 μL of the compound, dissolved in DMSO at different concentrations, were added to a 96 well hard-shell PCR plate (Bio-Rad). Afterwards 4 μL of assay buffer (50 mM BTP, 1 mM MgCl2, 1 mM DTT, pH 8.5) were added, followed by 10 μL of 2×KMT9 (final concentration 2 μM) in assay buffer. After addition of 5 μL 4×SYPRO-Orange (Sigma) (final concentration 5×), the plate was spun for 1 min at 700 rpm, then shaken at 600 rpm for 15 minutes. After another […] spinning at 700 rpm for 1 min, measurement was performed using a CFX96 Touch Real-Time PCR Detection System (Bio-Rad). The plate was equilibrated at 20° C. for 4 minutes before heating gradually by 1° C. every 15 seconds until 95° C. After every step, the fluorescence was measured in FRET mode. The thermal shift at 500 μM is detected in K (Kelvin). For Example 9o, the thermal shift at 250 μM is detected in K (Kelvin). The obtained thermal shift obtained by adding the tested compound is shown in the table below as follows: shift ≤5 K is denoted with a “+”, shift >5 and ≤15 K is denoted with “++”, and shift >15 K is denoted with “+++”."}, "[22]": {"target": "T1, KMT9", "test": "Methyltransferase panel, 10-dose IC50 mode", "format": "biochemical", "settings": "Substrate: Histone H4; 1 μM SAM; read-out: Compound IC50* (M) KMI9542321", "protocol": "as §1"}, "[23]": {"test_system": "plurality of methyltransferases including DOT1L", "test": "Specificity across a plurality of methyltransferases", "format": "biochemical", "settings": "10-dose IC50 mode starting at 10 μM, 1 μM SAM", "protocol": "as §1"}}, "data": [{"compound": "Nc1ncnc2c1ncn2[C@@H]1O[C@H](CSCC[C@H](N)C(=O)O)[C@@H](O)[C@H]1O", "note": "[SAH, S-(5′-Adenosyl)-L-homocysteine]", "values": [{"measurement": "IC50", "setting": "[1]", "value": 26.4, "unit": "µM"}, {"measurement": "IC50", "setting": "[2]", "value": 329, "unit": "nM"}, {"measurement": "IC50", "setting": "[3]", "value": 35.2, "unit": "nM"}, {"measurement": "IC50", "setting": "[4]", "value": 32.1, "unit": "nM"}, {"measurement": "IC50", "setting": "[5]", "value": 1210, "unit": "nM"}, {"measurement": "IC50", "setting": "[6]", "value": 1170, "unit": "nM"}, {"measurement": "IC50", "setting": "[7]", "value": 25.4, "unit": "µM"}, {"measurement": "IC50", "setting": "[8]", "value": 1070, "unit": "nM"}, {"measurement": "IC50", "setting": "[9]", "value": 643, "unit": "nM"}, {"measurement": "IC50", "setting": "[10]", "value": 4.33, "unit": "µM"}, {"measurement": "IC50", "setting": "[11]", "value": 1880, "unit": "nM"}, {"measurement": "IC50", "setting": "[12]", "value": 199, "unit": "nM"}, {"measurement": "IC50", "setting": "[13]", "value": 5.27, "unit": "µM"}, {"measurement": "IC50", "setting": "[14]", "value": 281, "unit": "µM"}, {"measurement": "IC50", "setting": "[15]", "value": 4.08, "unit": "µM"}, {"measurement": "IC50", "setting": "[16]", "value": 12.9, "unit": "µM"}, {"measurement": "IC50", "setting": "[17]", "value": 102, "unit": "µM"}, {"measurement": "IC50", "setting": "[18]", "value": 139, "unit": "µM"}]}, {"compound": "CNc1ncnc2c1ccn2[C@@H]1C[C@H](CN(CCCNCCc2ccccc2)CC[C@H](N)C(=O)O)[C@@H](O)[C@H]1O", "note": "[Compound 72b, (S)-2-amino-4-((((1R,2R,3S,4R)-2,3-dihydroxy-4-(4-(methylamino)-7H-pyrrolo[2,3-d]pyrimidin-7-yl)cyclopentyl)methyl)(3-(phenethylamino)propyl)amino)butanoic acid]", "values": [{"measurement": "IC50", "setting": "[19]", "value": "< 100", "unit": "nM"}, {"measurement": "Kd", "setting": "[20]", "value": "< 100", "unit": "nM"}, {"measurement": "ΔTm at 500 µM", "setting": "[21]", "value": "5 to 15", "unit": "°C"}, {"measurement": "IC50", "setting": "[22]", "value": "2e-07", "unit": "M"}, {"measurement": "specificity for KMT9-inhibition versus other methyltransferases", "setting": "[23]", "value": "specific for KMT9-inhibition"}]}]}
